The supplement of paper PMC8960247
Counter-ions that a name gives are not always drawn. ± gives the standard error.

Tests used:
621-102 (TSC2-deficient) = assay: relative viability vs DMSO; higher = less cytotoxic; settings: serum: 10% FBS, 72 h
621-103 (TSC2-rescued) = assay: as above; settings: serum: 10% FBS, 72 h
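Also: immortalized renal angiomyolipoma cells stably carrying empty vector or TSC2, dosed in 384-well plates in DMEM, viability normalized to vehicle-treated wells within each plate.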

| SMILES | relative viability (621-102 (TSC2-deficient); 0.0001 µM) [%] | relative viability (621-102 (TSC2-deficient); 0.001 µM) [%] | relative viability (621-102 (TSC2-deficient); 0.01 µM) [%] | relative viability (621-102 (TSC2-deficient); 0.1 µM) [%] | relative viability (621-102 (TSC2-deficient); 1 µM) [%] | relative viability (621-102 (TSC2-deficient); 10 µM) [%] | relative viability (621-103 (TSC2-rescued); 0.0001 µM) [%] | relative viability (621-103 (TSC2-rescued); 0.001 µM) [%] | relative viability (621-103 (TSC2-rescued); 0.01 µM) [%] | relative viability (621-103 (TSC2-rescued); 0.1 µM) [%] | relative viability (621-103 (TSC2-rescued); 1 µM) [%] | relative viability (621-103 (TSC2-rescued); 10 µM) [%] |
| --- | --- | --- | --- | --- | --- | --- | --- | --- | --- | --- | --- | --- |
| NC(=O)c1ccc(-c2nc(-c3ccccn3)c(-c3ccc4c(c3)OCO4)[nH]2)cc1 | 111 ± 2.5 | 116 ± 1.5 | 114.2 ± 0.63 | 117 ± 3.9 | 112.6 ± 1 | 106.7 ± 0.3 | 102 ± 3.6 | 108.5 ± 0.46 | 111 ± 4.9 | 98.44 ± 0.36 | 98.1 ± 1.6 | 94.07 ± 0.91 |
| COc1ccc(S(=O)(=O)Nc2cccnc2Nc2ccc(O)cc2)cc1 [ABT-751] | 112 ± 3.7 | 114 ± 3.9 | 111 ± 1.8 | 110 ± 5.1 | 44.8 ± 1.6 | 49.55 ± 0.36 | 108 ± 3.8 | 108 ± 2.6 | 105 ± 3.2 | 98 ± 1.5 | 44.2 ± 2.2 | 44.8 ± 0.75 |
| O=C(O)Cc1cccc(OCCCN(Cc2cccc(C(F)(F)F)c2Cl)CC(c2ccccc2)c2ccccc2)c1 [GW3965] | 89.3 ± 0.92 | 88.7 ± 4 | 86.8 ± 4.3 | 86.31 ± 0.36 | 77.5 ± 4 | 86.9 ± 5.4 | 107 ± 1.3 | 108 ± 3.5 | 110.7 ± 1 | 106 ± 4.5 | 99.6 ± 5.4 | 101 ± 3.5 |
| CC1=C(C(=O)Nc2cc3cn[nH]c3cc2F)C(c2ccc(C(F)(F)F)cc2)CC(=O)N1 (stereo not given) | 121 ± 2.4 | 104 ± 2.5 | 104.73 ± 0.024 | 108 ± 2 | 106 ± 2.2 | 85.826 ± 0.053 | 99 ± 0.99 | 98.74 ± 0.16 | 101 ± 3.5 | 101.2 ± 0.43 | 99.79 ± 0.91 | 96.4 ± 2.7 |
| CC(C)OC(=O)C1=CN(C(=O)c2ccc(F)c(F)c2)CC(C)(C)c2c1[nH]c1ccccc21 | 111 ± 1.3 | 106.3 ± 0.78 | 104 ± 1.6 | 102 ± 6.7 | 101 ± 2.5 | 101 ± 3.1 | 102.7 ± 0.95 | 104 ± 1.7 | 98.4 ± 1.8 | 99 ± 2.6 | 94.1 ± 5.9 | 99.22 ± 0.99 |
| O=c1cc(N2CCOCC2)oc2c(-c3ccccc3)cccc12 | 95.6 ± 1.2 | 111 ± 5 | 119.9 ± 0.6 | 113.8 ± 0.48 | 104 ± 1.5 | 80.2 ± 1.1 | 99.7 ± 1.1 | 100.3 ± 0.45 | 99.792 ± 0.068 | 97.55 ± 0.48 | 101.1 ± 0.21 | 65.2 ± 1.9 |
| CC(C)n1c(/C=C/C(O)CC(O)CC(=O)O)c(-c2ccc(F)cc2)c2ccccc21 (stereo not given) [Fluvastatin Sodium] | 102 ± 1.5 | 106 ± 3.3 | 105 ± 1.1 | 101 ± 3.1 | 100 ± 2.8 | 73.38 ± 0.72 | 102 ± 2.2 | 95.8 ± 2.6 | 99.5 ± 4.6 | 100 ± 2.1 | 71.8 ± 4.7 | 32.19 ± 0.096 |
| CC(=O)O[C@H]1CC[C@@]2(C)C(=CC[C@@H]3[C@@H]2CC[C@]2(C)C(c4cccnc4)=CC[C@@H]32)C1 [Abiraterone Acetate (CB7630)] | 103 ± 1.5 | 108 ± 7 | 102 ± 0.7 | 97.3 ± 2.7 | 103 ± 1.2 | 94.6 ± 2.4 | 106 ± 5.8 | 104 ± 3.1 | 111 ± 2.3 | 111 ± 5.3 | 105 ± 2 | 102 ± 3.2 |
| O=c1ncn2nc(Sc3ccc(F)cc3F)ccc2c1-c1c(Cl)cccc1Cl [VX-745] | 106 ± 5.1 | 112 ± 5.5 | 107 ± 1.1 | 104 ± 2.1 | 106 ± 4 | 93.3 ± 3.9 | 99.1 ± 1 | 101 ± 1.2 | 99.4 ± 1.5 | 100 ± 1.5 | 99.42 ± 0.31 | 98.127 ± 0.049 |
| COc1cc2c(cc1OC)C(=O)C(CC1CCN(Cc3ccccc3)CC1)C2 (stereo not given) [Donepezil HCl] | 96.2 ± 3.9 | 108 ± 4.1 | 103.6 ± 0.26 | 111 ± 1.3 | 101.6 ± 0.44 | 86.8 ± 1.3 | 93.1 ± 3 | 105 ± 2.5 | 102 ± 4.3 | 106 ± 1.8 | 104 ± 3.4 | 93.21 ± 0.93 |
